Results published in patent publication US12600740B2, “Fluorinated N-acetyl glucosamine analogs and xylose derivatives” (UTI Limited Partnership, priority 2018, dated 2026).
Entries after “also recorded” stand apart in the source; their conditions may differ. Structures can show the parent of a compound that is named as a salt.

Experiments:
[1] = tested on: CSPG production by astrocytes; assay: Western blot of astrocyte conditioned medium, MAB2030 (chondroitin sulfate GAG stubs); assay type: cell-based, mouse; details: astrocyte conditioned media, 50 μM, 48 hours
Text: Astrocytes are major producers of CSPGs following injury in the CNS [Jones, L. L., Margolis, R. U. & Tuszynski, M. H. The chondroitin sulfate proteoglycans neurocan, brevican, phosphacan, and versican are differentially regulated following spinal cord injury. Experimental Neurology 182, 399-411 (2003); Tang, X., Davies, J. E. & Davies, S. J. Changes in distribution, cell associations, and protein expression levels of NG2, neurocan, phosphacan, brevican, versican V2, and tenascin-C during acute to chronic maturation of spinal cord scar tissue. […] The Journal of neuroscience: the official journal of the Society for Neuroscience 20, 2427-2438 (2000); McKeon, R. J., Jurynec, M. J. & Buck, C. R. The chondroitin sulfate proteoglycans neurocan and phosphacan are expressed by reactive astrocytes in the chronic CNS glial scar. The Journal of neuroscience: the official journal of the Society for Neuroscience 19, 10778-10788 (1999); Haas, C. A., Rauch, U., Thon, N., Merten, T. & Deller, T. Entorhinal cortex lesion in adult rats induces the expression of the neuronal chondroitin sulfate proteoglycan neurocan in reactive astrocytes. The Journal of neuroscience: the official journal of the Society for Neuroscience 19, 9953-9963 (1999)] and they may help drive progression of disability in a model of progressive MS [Mayo, L. et al. Regulation of astrocyte activation by glycolipids drives chronic CNS inflammation. Nature medicine 20, 1147-1156 (2014)]. Therefore astrocytes were used as model cells to determine the ability of the sugar analogs to reduce synthesis of CSPGs. Since CSPGs are exported out of cells, the conditioned media from analog-treated astrocytes were probed by Western blots (FIG. 4). We used antibodies to both the stubs of chondroitin sulfate GAGs attached to the core protein (MAB2030) and to intact 4-sulfated chondroitin sulfate sidechains (2H6) (FIG. 4a). Particularly, we used the 2H6 antibody to label intact 4-sulfated chondroitin sulfate sidechains, and the MAB2030 antibody to detect the stubs of chondroitin sulfate GAGs attached to the core protein. […] 1998, 160 (8), 3812-3819. Poole Poole C. A.; Glant T. T.; Schofield J. R.; Chondrons from articular cartilage. (IV). Immunolocalization of proteoglycan epitopes in isolated canine tibial chondrons. J. Histochem. Cytochem. 1991, 39 (9), 1175-1187].
Astrocytes were plated in uncoated 6-well plates (3 replicate wells per treatment) at 1×10^6 cells/well in mixed glial media, and incubated at 5% CO2 and 37° C. Astrocytes were treated with compounds at 50 μM in AIM-V media for 48 hours. Media was pooled from 3 replicate wells in 15 ml 100K cutoff centricon tubes (EMD Millipore, #UFC905008), which were spun on an ultracentrifuge at 5000× g for 2 cycles of 10 minutes each. When harvested, the cell lysate was kept on ice for 5 minutes with 250 μL of RIPA buffer (ThermoFisher Scientific #89900) containing proteinase inhibitor, and then collected and centrifuged at 14000 g for 5 minutes. Total protein was quantified using a Bradford assay. Conditioned media that were to be probed for chondroitin 4-sulfate GAGs (Millipore, #MAB2030) were first digested with 0.2 U/ml chondroitinase ABC for overnight at 37° C. to remove chondroitin sulfate sidechains. Blots that were to be probed with CSA (2H6, Cosmo) or CS56 (Abcam #ab11570) were not exposed to chondroitinase ABC. Samples were heat denatured with NuPAGE® LDS Sample buffer at 70° C. for 10 minutes and then loaded into 3-8% tris-acetate pre-cast gels (ThermoFisher, #EA0478BOX). The gels were electrophoresed at a constant 150 V for 90 minutes and transferred to a […] polyvinylidene fluoride membrane at a constant 250 mA for 60 minutes. The membranes were blocked for one hour with 10% skim milk in Tris-buffered saline (TBS; 0.9% NaCl, 10 mM Tris-HCl, pH 7.5) containing 0.5% Tween 20 (TBS-T). Primary antibodies were added in 3% skim milk and incubated overnight at 4° C. […]

[2] = tested on: oligodendrocyte precursor cells (OPCs); assay: Growth of OPCs on astrocyte-secreted extracellular matrix; assay type: cell-based, mouse; details: astrocytes treated 48 hours, then removed; OPCs plated on matrix
Text: The process of remyelination requires oligodendrocyte lineage cells to undergo process outgrowth prior to their expression of mature myelin proteins for repair. Thus, process outgrowth in culture by cells of the oligodendrocyte lineage has been used as one surrogate for myelinating potential in vivo [Keough, M. B.; Rogers, J. A.; Zhang, P.; Jensen, S. K.; Stephenson, E. L.; Chen, T.; Hurlbert, M. G.; Lau, L. W.; Rawji, K. S.; Plemel, J. R. et al. An inhibitor of chondroitin sulfate proteoglycan synthesis promotes central nervous system remyelination. Nat. Commun. 2016, 7, 11312], since an oligodendrocyte needs to elaborate multiple protrusions emanating in several directions to contact many axons, and where these processes then compact around axons to form myelin segments. The presence of CSPGs in culture impairs the process outgrowth of OPCs, and this has been linked to reduced remyelination capacity in vivo [Keough, M. B.; Rogers, J. A.; Zhang, P.; Jensen, S. K.; Stephenson, E. L.; Chen, T.; Hurlbert, M. G.; Lau, L. W.; Rawji, K. S.; Plemel, J. R. et al. An inhibitor of chondroitin sulfate proteoglycan synthesis promotes central nervous system remyelination. Nat. Commun. 2016, 7, 11312]. It was reported previously that astrocytes in culture produce a plate-bound matrix abundant in CSPGs, that is left behind once astrocytes are removed from the plate, and this CSPG-containing matrix inhibits the outgrowth of plated OPCs [Keough, M. B. et al. An inhibitor of chondroitin sulfate proteoglycan synthesis promotes central nervous system remyelination. Nature communications 7, 11312 (2016)] (FIG. 7a). Thus, astrocytes were treated with test compounds for 48 hours and they were then removed from the cell culture plate leaving only their secreted ECM behind (FIG. 7a). When OPCs were plated on the astrocyte matrix, the extent of their process outgrowth over […] of observation was inhibited (FIG. 7b). […] OPCs growing in the absence of astrocyte ECM can reach a mean outgrowth around 300 μm (FIG. 7b,c). […] These compounds were: Ac-4,4-diF-GlcNAc 16 (Ac-4,4-diF-GlcNAc), fluorosamine 3 and its O1-deacetylated analog 10 (Ac-4-F-GlcNAcOH), anomeric O-propanoate 7, anomeric O-butanoate 8 (Ac-4-F-GlcNAcOBu), and the 4-fluorinated GalNAc derivative 13 (Ac-4-F-GalNAc) (FIG. 7c).
In brief, cortices from postnatal days 1-3 mouse brains were dissociated with papain digestion and then plated as a mixed culture for 7 days in a 37° C. incubator at 8.5% CO2 whereupon OPCs and microglia tended to be loosely attached on top of a monolayer of astrocytes; the OPCs and microglia were then shaken off when placed on an orbital shaker at 220 r.p.m. at 37° C. and 5% CO2 overnight. The media containing microglia and OPCs were collected and added to a 100 mm tissue culture dish and left at 37° C. and 5% CO2 for 30 min, to allow preferential adhesion of microglia. The media were collected again, now containing OPCs, and used as the OPC-enriched isolates for experiments. For the remaining adhered cells, largely astrocytes, these were removed with 0.25% trypsin and after centrifugation and washing, these astrocytes were plated at a density of 1.0×10^5 cells in flat bottom 96-well plates coated with 10 μg/ml poly-L-lysine. Cells were grown for 7 days at 37° C. and 5% CO2 in MGM and daily media changes. Astrocytes were carefully removed with EDTA treatment (0.2 g EDTA (Na4) per liter PBS, 30 minutes at 37° C. and 5% CO2) and mechanical dislodgement with a micropipetter. The remaining ECM left behind was covered with PBS at 4° C. until OPCs were seeded. Enriched OPCs from mixed glial cultures were seeded at a density of 5-10×10^4 cells per well in OPC media and grown at 37° C. and 8.5% CO2 for 18-24 h and then were fixed with 4% ice-cold paraformaldehyde at 4° C. for 10 min, rinsed with PBS, and stored at 4° C. until immunocytochemistry. […]

mouse astrocytes = assay: Propidium iodide/calcein AM toxicity on astrocytes; assay type: cell-based; details: 100 μM, 48 hours
Description: Toxicity on astrocytes was assayed with propidium iodide/calcein AM […]. Live cells convert calcein AM into a green fluorescent product, whereas dying/dead cells are stained with propidium iodide.
96-well plates were imaged with ImageXpress® Micro Cellular Imaging and Analysis System (Molecular Devices, Sunnyvale, CA). Twelve images per well were collected at ×10 magnification. Images were processed with MetaXpress analysis software. OPC outgrowth was calculated by the MetaExpress® “neurite outgrowth” software module which uses fluorescence and user-modified parameters to document the overall extent of processes emanating from the cell soma, regardless of size of the protrusions or the number of branches. This was previously detailed elsewhere [Cua, R. C.; Lau, L. W.; Keough, M. B.; Midha, R.; Apte, S. S.; and Yong, V. W. Overcoming neurite-inhibitory chondroitin sulfate proteoglycans in the astrocyte matrix. Glia 2013, 61 (6), 972-84]. Live-dead cell assay was calculated with MetaXpress analysis software with the “multiwavelength cell scoring”, which uses fluorescent intensity to measure co-localization of calcein AM, propidium iodide, and […]. Data from the 12 images were averaged to a single data point per well, wherein the OPC outgrowth data calculated from the MetaExpress® “neurite outgrowth” readout was divided by data from the same 12 fields of cell number that was acquired through the multiwavelength cell scoring. This provided mean outgrowth per cell per well, with four well replicates per treatment. Experiments were repeated at least twice.
A mixture was created containing propidium iodide (10 μg/ml) to stain dead cells, 10 μM Calcein AM (ThermoFisher, #C3100MP) to identify live cells, and 2 drops per ml of media of NucBlue™ Live ReadyProbes™ Reagent (ThermoFisher, #R37605) to identify nuclei. The mixture was added to plate media and incubated for 20-30 minutes at 37° C. and 5% CO2 before imaging. Excitation/emission of calcein-AM (λex 490 nm, λem 515 nm), propidium iodide (λex 535 nm, λem 617 nm), and nuclear blue (λex 350 nm, λem 461 nm) was performed using ImageXpress® Micro Cellular Imaging and Analysis System (Molecular Devices, Sunnyvale, CA) and analyzed by MetaExpress multiwavelength cell scoring program.

TNFα = TNFα ELISA of LPS-stimulated bone marrow-derived macrophages; assay type: cell-based, mouse; details: BMDMs, 50 μM, LPS 100 ng/ml, 24 hours
Description: Multiple Sclerosis: Mechanisms and Immunotherapy. Neuron 97, 742-768 (2018)]. It was tested whether the sugar analogs could affect the activity of macrophages, using bone marrow-derived macrophages (BMDMs) stimulated with lipopolysaccharide (LPS, 100 ng/ml). The sugar analogs were added at 50 μM prior to LPS, and the conditioned medium was collected after 24 hours and assayed for levels of the secreted cytokine TNFα. […] Testing Toxicity of Sugar Analogs
Femurs were carefully removed from euthanized female C57BI/6 mice, and marrow was flushed into a culture plate with cold complete bone marrow growth medium (DMEM, 10% fetal bovine serum, and the supplements 1% penicillin/streptomycin, 1% glutamine, 1% non-essential amino acids, and 10% supernatant from L929 cell-line enriched in macrophage-colony stimulating factor). Cells were spun at 1100 rpm for 10 minutes, resuspended in fresh growth medium and plated at 10×10^6 cells/ml in a 10 cm culture dish. Cells were grown in DMEM with supplements and L929 supernatant for 5 days, then half the medium was replaced with fresh growth medium. On day 7 growth medium was replaced with DMEM with 10% FBS and supplements. Cells were used on day 8, and experiments were conducted in DMEM with 1% FBS and supplements unless otherwise specified.
BMDM were plated at 25,000 cells in 96-well plates in DMEM+L929 media. After 24 hours media was changed to DMEM+1% FBS. One hour later, cells were treated with […] compounds or PBS. After 1 hour LPS (final concentration 100 ng/ml) was added. Following 24 hours, conditioned media was harvested for TNFα ELISA (Thermo Scientific), which was performed according to manufacturer's instructions.

Structure (SMILES) | effect on CSPG production by astrocytes [1] | mean process outgrowth of OPCs on astrocyte ECM [2] | toxicity on astrocytes (propidium iodide/calcein AM) (mouse astrocytes) | TNFα production by LPS-stimulated macrophages (TNFα) | effect on CSPG production by astrocytes ([1]; sodium salt)
CC(=O)NC1C(OC(C)=O)OC(C(F)F)[C@@H](OC(C)=O)C1OC(C)=O (stereo in doubt) [Compound 18, 2-acetamido-1,3,4-tri-O-acetyl-2,6-dideoxy-6,6-difluoro-α/β-D-glucopyranose] | did not decrease CSPG production in astrocytes | significantly enhanced OPC outgrowth | – | – | –
OO [Compound H2O2, reference compound] | – | – | caused a significant increase in toxicity; also recorded: caused increase in propidium iodide-positive staining | – | –
CC(=O)O[C@H]1OC[C@@H](F)[C@H](OC(C)=O)[C@H]1OC(C)=O [Compound 27, 1,2,3-Tri-O-acetyl-4-deoxy-4-fluoro-α-D-xylopyranose] | did not reduce CSPG production | – | – | enhanced TNFα levels | –
CC(=O)O[C@@H]1[C@@H](OC(C)=O)[C@H](OCCCCCCS(=O)(=O)O)OC[C@H]1OC(C)=O [Compound 23, 6-Sulfohexyl 2,3,4-tri-O-acetyl-β-D-xylopyranoside, sodium salt] | – | significantly enhanced OPC outgrowth | – | – | CSPG production was not impacted; also recorded: did not decrease CSPG production in astrocytes
